Measured values from patent US11571418B2, “Platinum compounds that inhibit constitutive STAT3 signaling and induce cell cycle arrest and apoptosis of malignant cells” (H. LEE MOFFITT CANCER CENTER AND RESEARCH INSTITUTE, INC., priority 2011, dated 2023).

Columns and labels:
MDA-MB-453 [1] = test: Cell cycle analysis by BrdU labeling and flow cytometry; type: cell-based, human; settings: no constitutively-active Stat3
Protocol: (§1) FIG. 6. Analysis of relative cellular DNA content using BrdU labeling and flow cytometry. Relative DNA content of human breast cancer cell lines following treatment with or without PLATINUM-401 was analyzed by BrdU incorporation and flow cytometry. The population of cells determined from the relative DNA content is shown in each panel for each treatment condition. Results are the representative of 3 independent determinations.
(§2) Cell proliferation and TUNEL assays—Proliferating cells were first treated with or without PLATINUM-401 for up to 48 h. A portion of cells were harvested for BrdU incorporation following the manufacturer's (BD Biosciences Pharmingen, San Diego, Calif.) instructions and analyzed by flow cytometry. Harvested cells were also analyzed for apoptosis via detection of TdT-mediated dUTP nick-end labeling (TUNEL) assay using Apoptosis Detection Systems Fluorescein according to the manufacturer's (Roche, Indianapolis, Ind.) instructions. Oligonucleotides and plasmids Transfections. The Stat3 antisense (5′-[…]-3′) (SEQ ID NO:3) or control mismatch oligonucleotides (5′-[…]-3′) (SEQ ID NO:4) were synthesized using phosphorothioate chemistry and were synthesized with 2′-Omethoxyethyl modification of the five terminal nucleotides (underlined; (Mora et al., 2002; Karras et al., 2000)) to increase stability. Transfections of Stat3AS and plasmids were carried out with Lipofectamine 2000 (LF) according to the manufacturer's instructions (Invitrogen, Carlsbad, Calif.). Briefly, cells were seeded at 1-2×10^6 cells/10-cm tissue-culture plates 18 h before transfection. Immediately before transfection, cells were washed once with PBS. Cells were transfected with luciferase reporters (4 μg) in the presence or absence of v-Src (4 μg), or were transfected with Stat3β (4 μg) or pRC/CMV Stat3 Flag (4 μg). […]
(§3) The inventors further examined the biological effects of PLATINUM-401 and determined whether any changes might correlate with the inhibition of constitutively-active Stat3. […]

MDA-MB-231 = test: as above; type: cell-based, human
Protocol: as §1, §2, §3

MDA-MB-453 [2] = test: Ki67 proliferation index by immunohistochemistry; type: cell-based, human; settings: no persistent Stat3 activity
Protocol: FIGS. 5A and 5B. Evaluation for effects of PLATINUM-401 on cellular constitutive Stat3 activation and cell proliferation. Normal or malignant cells were treated with or without PLATINUM-401 and nuclear extracts were prepared for Stat3 DNA-binding activity assay with hSIE probe, or cells were processed for nuclear Ki67 immunohistochemistry. (FIG. 5A) EMSA analysis of Stat3 DNA-binding activity; (FIG. 5B) Graphical representations of quantified nuclear staining of Ki-67 proliferation index. Stat3:Stat3-DNA complexes in gels are labeled. The Ki-67 proliferation indexes were calculated as the percent positive tumor cells relative to the total number of cells. […]
Immunohistochemistry—The indirect peroxidase-antiperoxidase test was performed on cytospins prepared from cell lines (control and treated). […] The presence of Ki-67 nuclear staining was calculated as percent positive tumor cells in relation to the total number of cells.
as §3
Changes in cell proliferation induced by treatment with PLATINUM-401 were assayed in terms of Ki67 proliferation index by immunohistochemistry. The presence of Ki-67 nuclear staining was calculated as the percent positive tumor cells in relation to the total number of cells.

[3] = test system: malignant cells harboring constitutively-active Stat3; test: Constitutive Stat3 activation in treated malignant cells (EMSA of nuclear extracts); type: cell-based; settings: 24 h treatment
Protocol: FIGS. 5A and 5B. Evaluation for effects of PLATINUM-401 on cellular constitutive Stat3 activation and cell proliferation. Normal or malignant cells were treated with or without PLATINUM-401 and nuclear extracts were prepared for Stat3 DNA-binding activity assay with hSIE probe, or cells were processed for nuclear Ki67 immunohistochemistry. (FIG. 5A) EMSA analysis of Stat3 DNA-binding activity; (FIG. 5B) Graphical representations of quantified nuclear staining of Ki-67 proliferation index. Stat3:Stat3-DNA complexes in gels are labeled. The Ki-67 proliferation indexes were calculated as the percent positive tumor cells relative to the total number of cells. Ki67 values are representative of 3 independent assays.
Nuclear extract preparation and gel shift assays—Nuclear extract preparation from NIH3T3 stimulated by rhIL-6, NIH3T3/hEGFR stimulated by rhEGF, v-Src-transformed fibroblasts (NIH3T3/v-Src) or tumor cell lines and electrophoretic mobility shift assay were carried out as previously described (Turkson et al., 1998; Garcia et al., 1997; Yu et al., 1995). […]
as §3

With `CC(O)CN1CCN(CC(C)O)CC1` (centres unmarked) [PLATINUM-401] as the compound, how does the cell cycle profile (MDA-MB-453 [1]) read?
The cell cycle profile was “no significant change”.

What about the cell cycle change (MDA-MB-231; BrdU, flow cytometry) of the same compound?
The cell cycle change was “arrested at G0/G1 phase”.

And the S phase cells (MDA-MB-231; persists up to 48 h)?
Its S phase cells is “significant decrease”.

And the “proliferation (Ki67 index)” value (MDA-MB-453 [2])?
The value was “lack of effect”.

And the “constitutive activation of Stat3” value [3]?
Its value is “significant inhibition”.
